Measured values as given in US9221800B2, “Isoxazole treatments for diabetes” (The Board of Regents of the University of Texas System, priority 2011, dated 2015).
Entries after “also recorded” stand apart in the source; their conditions may differ.

Assays:
MIN6 cells = assay: Immunoblotting of MIN6 whole cell lysates; type: cell-based, mouse
Procedure: FIGS. 2[…]-1) activates insulin expression and improves β cell function in MIN6 cells. (FIG. 2A) Dose-response relationship of MIN6 cells treated with 5-80 μM Isx for 24 h or DMSO (0.08%-similar to the highest concentration of Isx). Whole cell lysates (40 μg) were subjected to immunoblotting using antibodies against BETA2NeuroD1, MafA, PDX-1, pERK1/2 (pT183/[…]), acetylated histones […] and ACH3K9 and total histone H3. (FIG. 2B) Quantitative RT-PCR of murine insulin1 and insulin2 gene expression in MIN6 cells treated with Isx for 24 h as in FIG. 2A. […] (FIG. 2D) Insulin content measured by ELISA in MIN6 cells treated with Isx for 24 or 48 h. (FIG. 2E) GSIS induced by glucose, amino acids (AA) and Exendin-4 (Ex-4) singly or in combination in MIN6 cells pretreated with Isx for 48 h. FIGS. 4[…]-1) is a HAT activator. (FIG. 4A) Immunoblots of acetylated histones in MIN6 cells pretreated with the indicated inhibitors for 16 h and then treated with vehicle or Isx. (FIGS. 4B-C) HDAC (FIG. 4B) and HAT (FIG. 4C) activities in 50 μg of nuclear extract protein from MIN6 cells treated with Isx or DMSO for 24 h. Trichostatin A (TSA; 2 μM) was added at as a positive control. HeLa nuclear extract also was included as a positive control. […] Statistical analysis was performed using Student's t test as in FIGS. 1A-E. *P<0.05; **P<0.01. (FIG. 4G) Simplified view of the actions of Isx. FIG. 6. Time course of […]-1) treatment in MIN6 cells. Immunoblotting of whole cell extracts from MIN6 cells grown for 24 h in complete DMEM containing […] and treated with 20 μM Isx for from 15 min to 24 h. The control (0 min) was treated with DMSO for 24 h. MIN6 cells were cultured in DMEM (Gibco), containing 25 mM glucose, 10% fetal bovine serum, 10 mM Hepes pH 7.4, 10.2 mM L-glutamine, […] sodium pyruvate, 2.5 mM β-mercaptoethanol, 100 U/ml penicillin and 100 μg/ml streptomycin at 37° C. in 10% CO2. Human islets were obtained from the ICR Basic Science Islet Distribution and from the University of Alabama, Birmingham Islet Resource Facility and were cultured in RPMI 1640 with 11 mM glucose for up to 1 year. The medium was changed twice weekly and the islets were subcultured when they reached 90% confluence. For Isx treatments, cells were incubated in medium containing either Isx or the equivalent volume of DMSO vehicle (0.04%). To measure GSIS, cells were placed in Krebs-Ringer bicarbonate/Hepes containing 0.1% bovine serum albumin and 2 mM glucose for 2 h, and stimulated for 15 min with 20 mM glucose, a 1× amino-acid mixture (concentrations as in DMEM), or 50 nM Exendin-4.

BETA2 = assay: Acetylation of BETA2 (anti-myc immunoprecipitates, anti-acetyl lysine immunoblot); type: cell-based; details: cells overexpressing myc-BETA2 (FIG. 3C)
Procedure: FIGS. 3A-E. Isx (LSH-1) activates transcription factors that regulate insulin gene expression and insulin production. (FIG. 3A) Insulin promoter reporter activity in HEK293 cells transfected with BETA2, MafA, PDX-1, or (FIG. 3B) WT MafA or mutant MafA, treated with Isx or vehicle for 24 h. (FIG. 3C) Immunoblotting of anti-myc immunoprecipates using anti-acetyl lysine (Ac-K) and anti-BETA2 from cells overexpressing myc-BETA2. (FIG. 3D) Chromatin immunoprecipitation (ChIP) analysis of MafA and BETA2 (FIG. 3E) association with the insulin promoter in MIN6 cells in response to a 10-min glucose stimulation.

HDAC = HDAC activity in nuclear extracts of treated MIN6 cells; type: cell-based, mouse; details: 24 h treatment, TSA 2 μM positive control (FIG. 4B)
Procedure: The histone acetyl transferase and deacetylase activities were measured in 50 μg of nuclear protein using the HAT and HDAC activity colorimetric assay kits from Biovision Biotechnology according to manufacturer's recommendations.

[1] = system: rat insulin 1 promoter-luciferase reporter (pGL3-rIns -410, +1); assay: Insulin promoter luciferase reporter assay in HEK293 cells; type: cell-based
Procedure: HEK 293 cells (0.15×10^6 cells) in triplicate were transfected with the pGL3-rIns reporter construct (0.1 μg/well) (Stratagene) and cotransfected with 0.5 μg/well of either empty vector (pcDNA3.1) or vectors encoding BETA2:myc, MafA:myc or PDX-1:myc using Lipofectamine 2000 (Invitrogen). After 24 h, cells were stimulated with 20 μM Isx or DMSO for another 24 h. Luciferase activity was measured using the dual luciferase reporter system (Promega) with Renilla Luciferase as an internal control.

[2] = 24 h exposure, 5-80 μM Isx (FIG. 2A)

O=C(NC1CC1)c1cc(-c2cccs2)on1 [Isx, N-cyclopropyl-5-(thiophen-2-yl)isoxazole-3-carboxamide]
ERK1/2 activation, time course (MIN6 cells; 20 μM Isx, 15 min to 24 h (FIG. 6)): biphasic effect
MafA expression (MIN6 cells; [2]): increased substantially
PDX-1 expression (MIN6 cells; [2]): little if any change
immunoreactive BETA2 (MIN6 cells; [2]): increased at all concentrations
Acetylation of histone H3 and H4 (MIN6 cells; MIN6 cells treated with Isx (FIG. 2A, FIG. 4A)): increased; also recorded: marked effect
ERK1/2 phosphorylation (MIN6 cells; following 24 h of exposure): detectable
acetylation of BETA2 (BETA2): more strongly than the HDAC inhibitor sodium butyrate
HDAC activity in MIN6 cells (HDAC): not affected
increase of the activity of PDX-1 (insulin gene reporter) by Isx ([1]; 20 μM Isx 24 h): two-fold or less
Insulin gene reporter activity increase by either BETA2 or MafA in the presence of Isx ([1]; 20 μM Isx 24 h (FIG. 3A, FIG. 7)): ≥ 4 fold
